Where two headings read alike, the source gives them in different places. Where a SMILES comes first, the peptide text is derived from it. [ ]: non-standard residue; d: D form. Cha = N[C@@H](CC1CCCCC1)C(=O)O
Assays:
[1] = system: HCV RNA replicon in ET (luc-ubi-neo/ET) Huh7 cells; details: read-out: antiviral IC50; 72 h, replicon-derived Luc activity
[2] = system: ET (luc-ubi-neo/ET) Huh7 human hepatoma cell line; details: read-out: cytotoxicity TC50; 72 h, CytoTox-1 colorimetric assay
HIV RRE RNA (AP-RRE RNA) = format: binding; details: for Kd: 37° C., pH 7.4
Experimental: Determination of Dissociation Constants. […] A 660 μL volume of 100 nM AP-RRE RNA was first heated to 90° C. for 5 min and then allowed to cool to, but not below, the titration temperature (37° C.). A 650 μL volume of this sample was added to the pre-thermostatted cuvette. After 10 min of temperature equilibration a solution of 5 μM M-chelate-Rev complex was titrated into the solution. After each addition, 100 μL of the solution was mixed by gentle pipeting to ensure complete mixing. The fluorescence change associated with the change of environment of the aminopurine label was monitored following peptide binding. Titration response curves were dilution and background corrected and normalized to initial intensity values. Curves were fit to a biphasic equation (4) for two independent binding sites where Fobs is the total observed fluorescence intensity, P0 is the total concentration of added M-chelate-Rev, F0, F1, and F2 are fitting parameters corresponding to the intensities of the unbound, singly-bound, and doubly-bound AP-RNA, respectively, R0 is the initial concentration of AP-RNA, and KD1 and KD2 are dissociation constants for binding at the high- and low-affinity sites, respectively. All binding experiments were performed in a binding buffer composed of 20 mM HEPES, 100 mM NaCl, pH 7.4.

[3] = system: 5′ fluorescein end-labeled RRE stem IIB RNA (Fl-RNA); assay: PAGE analysis of RRE RNA cleavage kinetics; format: biochemical, HIV; details: 100 nM complex, 100 nM Fl-RNA, 1 mM H2O2, 1 mM ascorbate, 37° C.; initial rate
Experimental: PAGE Analysis of RRE RNA Cleavage Kinetics. Reactions of 100 nM metal-chelate-Rev (1:1.2 M:chelate ratio), 1 mM H2O2, 1 mM ascorbate, and 100 nM 5′ fluorescein end-labeled RRE stem IIB RNA (Fl-RNA) were conducted at 37° C. in separate tubes, each containing 20 μL total reaction volume—one tube corresponding to one gel lane. A buffer consisting of 20 mM HEPES, 100 mM NaCl, pH 7.4 was used in all experiments. Fl-RNA was heated to 90° C. and allowed to cool to, but not below 37° C. prior to reaction, and the Fl-RNA was immediately added to each pre-incubated tube. Reactants were added to pre-incubated tubes at time-points corresponding to the beginning of each reaction, which were performed in a dark incubator. Reaction start times were staggered and all reactions were quenched at the same time by addition of a quenching/gel-loading buffer solution (80 μL/tube) consisting of standard 1× tris-EDTA-acetic acid buffer, 8M urea, 20 mM HEPES, 100 mM NaCl. The tubes were then heated to 90° C. for 5 min and a 5 μL aliquot from each tube was then loaded into its corresponding lane of a 10% polyacrylamide 8 M urea gel, resulting in […] Fl-RNA per lane. Gel electrophoresis was performed at 250 V for 1.5 h. Gels were analyzed on a GE Typhoon variable mode imager using 488 nm excitation and a 526 nm single pass emission filter. Bands were quantified with the program ImageQuant. Loss of initial Fl-RNA reactant bands were fit to a first-order reaction equation using the software Origin, and observed rate constants and initial rates were determined. Control reactions with respective metal-chelates lacking the Rev domain were conducted in the same manner.

[4] = system: AP-RNA (aminopurine-labeled RRE RNA); assay: Reaction kinetics monitored by real-time fluorimetry, AP-RNA; format: biochemical, HIV; details: 100 nM complex, 100 nM AP-RNA, 1 mM H2O2, 1 mM ascorbate, 37° C.; initial rate
Experimental: Reaction Kinetics Monitored by Real-Time Fluorimetry. Reactions of 100 nM metal-chelate-Rev (1:1.2 M:chelate ratio), 1 mM H2O2, 1 mM ascorbate, and 100 nM AP-RNA were conducted at 37° C. in a fluorescence cuvette in a Varian Cary Eclipse fluorescence spectrophotometer. Reactions were monitored using excitation at 310 nm (SW=10 nm) and emission at 371 nm (SW=10 nm). Prior to reaction the AP-RNA was pre-heated to 90° C. for 5 min and then added to the pre-warmed 37° C. cuvette. The metal-chelate-Rev complexes were added after 5 min, and reactions were initiated by the addition of H2O2 and ascorbate after an additional 10 min. Each resulting fluorescence trace was fit to a first-order reaction equation using the software Origin, and observed rate constants and initial rates were determined; the magnitude of fluorescence change that corresponded to complete reaction was established by averaging the magnitudes of fluorescence change from many trials known to react to completion. All concentrations and buffer were identical to those used in the PAGE analysis assay with Fl-RNA. Control reactions with respective metal-chelates lacking the Rev domain were conducted in the same manner.

pUC19 plasmid DNA = assay: DNA nicking and linearization nuclease assay; format: biochemical; details: 100 nM M-chelate-Rev, 10 μM base pairs pUC19; ascorbate/peroxide
S. aureus sortase A = S. aureus sortase A (Staphylococcus aureus, UniProt Q2FV99); format: biochemical
Experimental: Apparent binding affinities and rates of inactivation for S. aureus sortase A by several metallopeptide derivatives were evaluated. […]

HCV protease = HCV protease (Hepatitis C virus genotype 1a, UniProt P27958); assay: biochemical; format: binding
Excerpt: This stems from the relationship between affinity and the on/off rate constants for binding (KA=kon/koff), where higher affinity binding is promoted by larger kon and/or smaller koff values. By contrast, efficient catalytic turnover requires koff values that are preferably no smaller than the rate constant for the inactivation chemistry (kcat), to ensure the availability of metallodrug catalyst for new target molecules, and will be best promoted by relatively high values for both kon and koff, which will result in weaker KA values.
Apparent binding affinities and rates of inactivation for HCV protease by several metallopeptide derivatives incorporating a Cu-GGH metal binding domain and C-terminal HCV protease targeting peptides were prepared and their affinity and reactivity were evaluated under in the presence of various redox reagents. Affinities lay within the range of 10^4M^−1 and 5×10^8 M^−1.

Sequence of HCV protease (P27958 1027-1208, other chains not shown): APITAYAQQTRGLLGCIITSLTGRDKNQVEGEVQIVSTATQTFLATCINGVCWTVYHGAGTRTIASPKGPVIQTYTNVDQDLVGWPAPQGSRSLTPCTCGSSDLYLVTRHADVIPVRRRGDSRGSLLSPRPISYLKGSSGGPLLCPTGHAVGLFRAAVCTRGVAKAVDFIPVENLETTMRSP
Sequence of S. aureus sortase A (Q2FV99 whole entry): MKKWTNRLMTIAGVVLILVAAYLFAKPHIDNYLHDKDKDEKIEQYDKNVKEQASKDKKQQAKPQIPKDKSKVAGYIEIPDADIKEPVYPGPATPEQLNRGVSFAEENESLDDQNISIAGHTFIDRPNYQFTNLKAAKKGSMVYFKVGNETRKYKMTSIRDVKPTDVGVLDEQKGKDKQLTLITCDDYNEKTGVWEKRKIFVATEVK

## Cu-GGHGKYKETDLLILFKDDYFAKKNEERK
[1]
  IC50: 550 nM
[2]
  CC50: > 100000 nM

## Cu-GGHGYrFKGGGKDEL
[1]
  IC50: 910 nM
[2]
  CC50: > 100000 nM

## Cu complex of GGH-Rev, GGHTRQARRNRRRRWRERQR-NH2 [Cu-GGH-Rev]
HIV RRE RNA (AP-RRE RNA); high-affinity RRE RNA site
  KA1: 25 10^8 M^−1
HIV RRE RNA (AP-RRE RNA); high-affinity RRE RNA site, read-out: KD1
  Kd: 4.6 ± 0.5 nM
HIV RRE RNA (AP-RRE RNA); low-affinity RRE RNA site
  KA2: 0.028 10^8 M^−1
HIV RRE RNA (AP-RRE RNA); low-affinity RRE RNA site, read-out: KD2
  Kd: 363 ± 9 nM
[3]
  Fl-RNA Cleavage Rate: 0.045 ± 0.005 nM/min
[4]
  AP-RNA Modification Rate: 0.4 ± 0.3 nM/min
pUC19 plasmid DNA
  klin for DNA linearization, with attached Rev (M-chelate-REV): 0.0013 ± 0.0001 min⁻¹
  knick for DNA nicking, with attached Rev (M-chelate-REV): 0.069 ± 0.006 min⁻¹

## Cu-GGHGAALEAKICHQIEYYFGDF
[1]
  IC50: 6250 nM
[2]
  CC50: 52000 nM

## Cu-GGHGLPETG
S. aureus sortase A
  IC50: > 100000 nM
S. aureus sortase A; catalyst concentration 1 μM
  activity for catalyst concentration of 1 μM: 0.012

## Cu-GGHKYKETDLLILFKDDYFAKKNEERKYGRKKRRQRRR
[1]
  IC50: 830 nM
[2]
  CC50: > 50000 nM

## Cu-GGHGKYKETDLLILFKDDYFAKKNEERKKDEL
[1]
  IC50: 750 nM
[2]
  CC50: > 50000 nM

## Cu-GGHGYrFKGGGYGRKKRRQRRR
[1]
  IC50: 950 nM
[2]
  CC50: 96000 nM

## CC[C@H](C)[C@H](NC(=O)[C@H](CC(C)C)NC(=O)[C@@H](CCC(=O)O)NC(=O)[C@H](CC(=O)O)NC(=O)CNC(=O)[C@H](Cc1c[nH]cn1)NC(=O)CNC(=O)CN)C(=O)N[C@@H](CC1CCCCC1)C(=O)N[C@@H](CS)C(=O)O [Cu-GGHGDeLI(Cha)C—CO2^−] (H-GGHGD[dE]LI[Cha]C-OH)
HCV protease
  Kd: 500 nM
  Ki: ~500 nM
HCV protease; apparent binding affinity
  KA: ~2e+06 M⁻¹

— patent US20140377289A1, “Metallodrugs Having Improved Pharmacological Properties, and Methods of Manufacture and Use Thereof” (MetalloPharm, LLC, priority 2011, published 2014)
